Reference: patent US20250213705A1, “PSMA TARGETING LIGANDS AND METHODS OF USE” (Bright Peak Therapeutics AG, priority 2023, published 2025)
Numbered stars: 1 amine (or outer) side, 2 acyl side, 3 side chain; on linkers, the order of the positions; unused ones are H or OH. Square brackets hold non-standard residues; d marks the D form. Side chains are listed from the residue outwards. Peptide text beside a SMILES is read from it. 2Nal = N[C@@H](Cc1ccc2ccccc2c1)C(=O)O; Trx = NC[C@H]1CC[C@H](C(=O)O)CC1; PEG3 = NCCOCCOCCOCCC(=O)O; Dap = NC[C@H](N)C(=O)O; CO = O=C([*:1])[*:2]

Legend:
[1] = molecular target: Recombinant Human PSMA/FOLH1 Protein (Homo sapiens (Human), UniProt Q04609); assay: Inhibition assay (Amplex Red glutamic acid/glutamate oxidase, NAAG substrate); type: biochemical; conditions: Target PSMA, average of N replicates; for IC50: PSMA 5 nM, NAAG 40 μM; for Ki: calculated based on Cheng-Prusoff equation
Sequence of Recombinant Human PSMA/FOLH1 Protein (Q04609 whole entry): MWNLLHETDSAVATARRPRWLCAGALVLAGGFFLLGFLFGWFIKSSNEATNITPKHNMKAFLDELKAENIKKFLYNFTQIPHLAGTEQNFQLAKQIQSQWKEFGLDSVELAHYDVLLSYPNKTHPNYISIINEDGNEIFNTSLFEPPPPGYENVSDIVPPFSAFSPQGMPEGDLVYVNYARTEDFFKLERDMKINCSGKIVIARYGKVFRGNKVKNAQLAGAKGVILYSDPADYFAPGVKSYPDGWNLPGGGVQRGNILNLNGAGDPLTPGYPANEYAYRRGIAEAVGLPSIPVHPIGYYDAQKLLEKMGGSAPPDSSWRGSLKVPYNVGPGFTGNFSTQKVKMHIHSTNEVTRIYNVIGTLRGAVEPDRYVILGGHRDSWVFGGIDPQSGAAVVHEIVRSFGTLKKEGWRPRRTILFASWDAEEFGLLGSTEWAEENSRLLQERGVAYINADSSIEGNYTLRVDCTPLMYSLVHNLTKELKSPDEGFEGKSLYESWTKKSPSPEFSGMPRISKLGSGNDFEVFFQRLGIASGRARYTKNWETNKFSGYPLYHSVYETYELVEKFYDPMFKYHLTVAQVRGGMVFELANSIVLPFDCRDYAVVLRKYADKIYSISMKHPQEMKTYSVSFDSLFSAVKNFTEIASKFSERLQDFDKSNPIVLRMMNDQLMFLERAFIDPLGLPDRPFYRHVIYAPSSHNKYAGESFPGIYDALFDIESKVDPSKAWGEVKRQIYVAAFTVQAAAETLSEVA
Procedure: Amplex™ Red Glutamic Acid/Glutamate Oxidase Assay Kit Catalog number: A12221 (Thermofisher); Recombinant Human PSMA/FOLH1 Protein, CF (rnd systems); N-Acetyl-Asp-Glu (NAAG) (Sigma Aldrich; 96 well half area plate; Enspire plate reader.
Prepare a working solution of 100 μM Amplex® Red reagent containing 0.25 U/mL HRP, 0.08 U/mL L-glutamate oxidase, 0.5 U/mL 1-glutamate-pyruvate transaminase, 200 μM L-alanine and keep protected from light. […] Final concentration is 5 nM. Transfer 10 μl/well of the inhibitor solution previously prepared in a separate 96 wells/plate.
Pipette 20 μl/well of the working solution prepared above. Incubate the reactions for 30 min at 37° C., protected from light. Because the assay is continuous (not terminated), fluorescence may be measured at multiple time points to follow the kinetics of the reactions. Measure the fluorescence in a fluorescence microplate reader using excitation in the range of 530-560 nm and emission detection at ˜590 nm. Ec50s were determined with GraphPad Prism. Ki is calculated based on Cheng-Prusoff equation.

human FOLH1 = human FOLH1 (Homo sapiens (Human), UniProt Q04609); assay: SPR analysis of binding kinetics to biotinylated FOLH1 (Biacore 8K); conditions: ligand PSMA; for Kon: association rate; for koff: dissociation rate
Sequence of human FOLH1 (Q04609 whole entry): as above
Procedure: The interaction of PSMA-binding variants with human FOLH1 was measured with Surface Plasmon Resonance (SPR) technology. Biotinylated FOLH1 was captured at a concentration of 30 μg/mL onto a Streptavidin chip.
Binding kinetics of the analytes were measured with a Biacore 8K instrument in two-fold serial dilutions starting at 500 nM down to 1.95 nM in single cycle kinetic measurements. After each cycle, needles were washed with 50% DMSO. To measure the association to the FOLH1 protein, the samples were injected with a flow rate of 30 μL/min for 90 s, followed by 1200 s buffer only to detect the dissociation. The used running buffer was 1×PBS with 0.05% Tween20 and 2% DMSO. The relative response units (RU, Y-axis) are plotted against time (s, X-axis) and analyzed in a kinetic 1:1 binding model.
In a different setup, biotinylated FOLH1 was captured at a concentration of 0.8 μg/mL and the running buffer was 1×PBS with 0.05% Tween20.

Structure (SMILES) | IC50 [1] [µM] | Ki [1] [nM] | Kon (human FOLH1) | koff (human FOLH1) [s⁻¹]
CC(=O)NCCOCCOCCOCCC(=O)N[C@@H](CCCOc1cc(C#N)cc(C#N)c1)C(=O)NCCC(=O)N[C@@H](Cc1ccc2ccccc2c1)C(=O)NCCCC[C@H](NC(=O)N[C@@H](CCC(=O)O)C(=O)O)C(=O)O [Compound 53] | 0.0112 | 0.0801 |  | 
C#CC[C@H](NC(=O)N[C@@H](CCCCNC(=O)[C@H](Cc1ccc2ccccc2c1)NC(=O)[C@H]1CC[C@H](CNC(=O)CCOCCOCCOCCNC(C)=O)CC1)C(=O)O)C(=O)O [Compound 50] | 17.6 | 126 |  | 
CC(=O)NCCOCCOCCOCCC(=O)NC[C@H]1CC[C@H](C(=O)N[C@@H](Cc2ccc3ccccc3c2)C(=O)NCCCC[C@H](NC(=O)N[C@@H](Cc2ccc(O)cc2)C(=O)O)C(=O)O)CC1 [Compound 25] | 44.6 | 319 |  | 
CC(=O)NCCOCCOCCOCCC(=O)NC[C@H]1CC[C@H](C(=O)N[C@@H](Cc2ccc3ccccc3c2)C(=O)NCCCC[C@H](NC(=O)N[C@@H](Cc2ccc(C(=O)O)cc2)C(=O)O)C(=O)O)CC1 [Compound 31] | 260 | 1860 |  | 
CC(=O)NCCOCCOCCOCCC(=O)N(CCCOc1cc(C#N)cc(C#N)c1)CC(=O)N[C@@H](Cc1ccc2ccccc2c1)C(=O)NCCCC[C@H](NC(=O)N[C@@H](CCC(=O)O)C(=O)O)C(=O)O [Compound 78] |  |  | 487000 1.ms | 0.000208
CC(=O)NCCOCCOCCOCCC(=O)NC[C@H]1CC[C@H](C(=O)N[C@H](Cc2ccccc2)C(=O)NCCCC[C@H](NC(=O)N[C@@H](CCC(=O)O)C(=O)O)C(=O)O)CC1 [Compound 18] | 0.54 | 3.86 |  | 
CC(=O)NCCOCCOCCOCCC(=O)NC[C@H]1CC[C@H](C(=O)N[C@@H](Cc2cscn2)C(=O)NCCCC[C@H](NC(=O)N[C@@H](CCC(=O)O)C(=O)O)C(=O)O)CC1 [Compound 45] | 0.554 | 3.96 |  | 
CC(=O)NCCOCCOCCOCCC(=O)NC[C@H]1CC[C@H](C(=O)N[C@@H](C)C(=O)NCCCC[C@H](NC(=O)N[C@@H](CCC(=O)O)C(=O)O)C(=O)O)CC1 [Compound 4] | 0.537 | 3.84 |  | 
CC(=O)NCCOCCOCCOCCC(=O)NC[C@H]1CC[C@H](C(=O)N[C@@H](Cc2ccncc2)C(=O)NCCCC[C@H](NC(=O)N[C@@H](CCC(=O)O)C(=O)O)C(=O)O)CC1 [Compound 44] | 0.177 | 1.27 |  | 
CC(=O)NCCOCCOCCOCCC(=O)N[C@@H](Cc1ccc(C(=O)O)cc1)C(=O)NCC(=O)N[C@@H](Cc1ccc2ccccc2c1)C(=O)NCCCC[C@H](NC(=O)N[C@@H](CCC(=O)O)C(=O)O)C(=O)O [Compound 94] |  |  | 112000 1.ms | 0.000261
CC(=O)NCCOCCOCCOCCC(=O)NC[C@H]1CC[C@H](C(=O)N[C@@H](Cc2ccc3ccccc3c2)C(=O)NCC(=O)N[C@@H](CNC(=O)N[C@@H](CCC(=O)O)C(=O)O)C(=O)O)CC1 [Compound 32] (Ac-[PEG3][Trx][2Nal]G[Dap]([CO-Glu])-OH) | 434 | 3100 |  | 
CC(=O)NCCOCCOCCOCCC(=O)NC[C@H]1CC[C@H](C(=O)N[C@H](Cc2ccc(O)cc2)C(=O)NCCCC[C@H](NC(=O)N[C@@H](CCC(=O)O)C(=O)O)C(=O)O)CC1 [Compound 43] | 0.679 | 4.86 |  | 
CC(=O)NCCOCCOCCOCCC(=O)NC[C@H]1CC[C@H](C(=O)N[C@@H](Cc2ccc(F)cc2)C(=O)NCCCC[C@H](NC(=O)N[C@@H](CCC(=O)O)C(=O)O)C(=O)O)CC1 [Compound 13] | 0.951 | 6.8 |  | 
CC(=O)NCCOCCOCCOCCC(=O)NC[C@H]1CC[C@H](C(=O)N[C@@H](Cc2cn(C)cn2)C(=O)NCCCC[C@H](NC(=O)N[C@@H](CCC(=O)O)C(=O)O)C(=O)O)CC1 [Compound 11] | 3.24 | 23.2 |  | 
CC(=O)NCCOCCOCCOCCC(=O)NC[C@H]1CC[C@H](C(=O)N[C@@H](CCCCN)C(=O)NCCCC[C@H](NC(=O)N[C@@H](CCC(=O)O)C(=O)O)C(=O)O)CC1 [Compound 6] | 58.2 | 416 |  | 
CC(=O)NCCOCCOCCOCCC(=O)N[C@@H]1C[C@@H](C(=O)NCC(=O)N[C@@H](Cc2ccc3ccccc3c2)C(=O)NCCCC[C@H](NC(=O)N[C@@H](CCC(=O)O)C(=O)O)C(=O)O)N(C(=O)CCCOc2cc(C#N)cc(C#N)c2)C1 [Compound 92] |  |  | 297000 1.ms | 0.000301
CC(=O)NCCOCCOCCOCCC(=O)NC[C@H]1CC[C@H](C(=O)N[C@@H](CCCOc2cc(C#N)cc(C#N)c2)C(=O)NCCCC[C@H](NC(=O)N[C@@H](CCC(=O)O)C(=O)O)C(=O)O)CC1 [Compound 47] | 2.06 | 14.7 |  | 

Structure (SMILES) | IC50 [1] [µM] | Ki [1] [nM] | Kon (human FOLH1) | koff (human FOLH1) [s⁻¹]
CC(=O)NCCOCCOCCOCCC(=O)NC[C@H]1CC[C@H](C(=O)N[C@@H](Cc2ccc(O)cc2)C(=O)NCCCC[C@H](NC(=O)N[C@@H](CCC(=O)O)C(=O)O)C(=O)O)CC1 [Compound 3] | 0.421 | 3.01 |  | 
CSCC[C@H](NC(=O)N[C@@H](CCCCNC(=O)[C@H](Cc1ccc2ccccc2c1)NC(=O)[C@H]1CC[C@H](CNC(=O)CCOCCOCCOCCNC(C)=O)CC1)C(=O)O)C(=O)O [Compound 27] | 191 | 1370 |  | 
CC(=O)NCCOCCOCCOCCC(=O)NC[C@H]1CC[C@H](C(=O)N[C@@H](CC(C)C)C(=O)NCCCC[C@H](NC(=O)N[C@@H](CCC(=O)O)C(=O)O)C(=O)O)CC1 [Compound 1] | 2.39 | 17.1 |  | 
CC(=O)NCCOCCOCCOCCC(=O)NC[C@H]1CC[C@H](C(=O)N[C@@H](Cc2ccc3ccccc3c2)C(=O)NCCCC[C@H](NC(=O)N[C@@H](Cc2cccc(C(=O)O)c2)C(=O)O)C(=O)O)CC1 [Compound 30] | 602 | 4300 |  | 
CC(=O)NCCOCCOCCOCCC(=O)NC[C@H]1CC[C@H](C(=O)N[C@@H](Cc2ccc3ccccc3c2)C(=O)NCCCC(=O)N[C@@H](CNC(=O)N[C@@H](CCC(=O)O)C(=O)O)C(=O)O)CC1 [Compound 33] | 583 | 4170 |  | 
CC(=O)NCCOCCOCCOCCC(=O)NC[C@H]1CC[C@H](C(=O)N[C@H](CC(=O)NCCCC[C@H](NC(=O)N[C@@H](CCC(=O)O)C(=O)O)C(=O)O)Cc2ccccc2)CC1 [Compound 46] | 0.446 | 3.19 |  | 
CC(=O)NCCOCCOCCOCCC(=O)NC[C@H]1CC[C@H](C(=O)N[C@@H](CC2CCCCC2)C(=O)NCCCC[C@H](NC(=O)N[C@@H](CCC(=O)O)C(=O)O)C(=O)O)CC1 [Compound 19] | 2.16 | 15.4 |  | 
CC(=O)NCCOCCOCCOCCC(=O)NC[C@H]1CC[C@H](C(=O)N[C@@H](Cc2ccc(N=[N+]=[N-])cc2)C(=O)NCCCC[C@H](NC(=O)N[C@@H](CCC(=O)O)C(=O)O)C(=O)O)CC1 [Compound 15] | 0.935 | 6.68 |  | 
CC(=O)NCCOCCOCCOCCC(=O)NC[C@H]1CC[C@H](C(=O)N[C@@H](Cc2ccc3ccccc3c2)C(=O)NCCCC[C@H](NC(=O)N[C@@H](CC(C)C)C(=O)O)C(=O)O)CC1 [Compound 26] | 1550 | 11000 |  | 
CC(=O)NCCOCCOCCOCCC(=O)NC[C@H]1CC[C@H](C(=O)N[C@@H](Cc2c[nH]c3ncccc23)C(=O)NCCCC[C@H](NC(=O)N[C@@H](CCC(=O)O)C(=O)O)C(=O)O)CC1 [Compound 22] | 0.488 | 3.49 |  | 
CC(=O)NCCOCCOCCOCCC(=O)NC[C@H]1CC[C@H](C(=O)N[C@@H](Cc2c[nH]cn2)C(=O)NCCCC[C@H](NC(=O)N[C@@H](CCC(=O)O)C(=O)O)C(=O)O)CC1 [Compound 9] | 1.08 | 7.74 |  | 
CC(=O)NCCOCCOCCOCCC(=O)NC[C@H]1CC[C@H](C(=O)N[C@H](Cc2c[nH]cn2)C(=O)NCCCC[C@H](NC(=O)N[C@@H](CCC(=O)O)C(=O)O)C(=O)O)CC1 [Compound 42] | 2.24 | 16 |  | 
CC(=O)NCCOCCOCCOCCC(=O)NC[C@H]1CC[C@H](C(=O)N[C@@H](CCCC(=O)O)C(=O)NCCCC[C@H](NC(=O)N[C@@H](CCC(=O)O)C(=O)O)C(=O)O)CC1 [Compound 20] | 1.49 | 10.7 |  | 
CC(=O)NCCOCCOCCOCCC(=O)NC[C@H]1CC[C@H](C(=O)N[C@@H](Cc2ccc3ccccc3c2)C(=O)NCCCC[C@H](NC(=O)N[C@@H](Cc2cnc[nH]2)C(=O)O)C(=O)O)CC1 (stereo in doubt) [Compound 29] | 576 | 4120 |  | 
CC(=O)NCCOCCOCCOCCC(=O)N[C@@H](Cc1ccncc1)C(=O)NCC(=O)N[C@@H](Cc1ccc2ccccc2c1)C(=O)NCCCC[C@H](NC(=O)N[C@@H](CCC(=O)O)C(=O)O)C(=O)O [Compound 85] | 0.0106 | 0.0759 |  | 
CC(=O)NCCOCCOCCOCCC(=O)N[C@@H](CCCOc1cc(C#N)cc(C#N)c1)C(=O)N[C@@H](Cc1ccc2ccccc2c1)C(=O)NCCCC[C@H](NC(=O)N[C@@H](CCC(=O)O)C(=O)O)C(=O)O [Compound 51] | 1.71 | 12.2 |  | 
